{
  "source": "patent US20070207121A1",
  "about": "“Methods of Using and Compositions Comprising Selective Cytokine Inhibitory Drugs for Treatment and Management of Macular Degeneration” (priority 2003, published 2007)",
  "key": {"laser-induced CNVM": {"test_system": "laser-induced CNVM", "conditions": "intravitreal injection, monkeys; cited from earlier work"}, "patients with MD": {"test_system": "patients with MD", "conditions": "intravitreal injection, over a one-year period; cited from earlier work"}, "MD": {"test_system": "MD", "conditions": "cited from earlier work"}, "[1]": {"test_system": "patients with macular degeneration", "test": "Clinical study in patients with macular degeneration, adjuvant to photodynamic therapy with verteporfin", "type": "in vivo, human", "conditions": "about 20 mg/day as adjuvant for 20 weeks with verteporfin photodynamic therapy", "description": "Selective cytokine inhibitory drugs of the invention are administered in an amount of about 20 to about 1,200 mg per day to patients with macular degeneration. In a specific embodiment, clinical studies are performed with forty patients with macular degeneration, who are divided into two groups. The first group receives conventional treatment for closing the leaking choroidal vessels (characteristic of this disease) by photodynamic therapy with verteporfin. Opthalmol 1999 (117): 1329-1345. The second group receives the same conventional therapy with verteporfin and (+)-2-[1-(3-ethoxy-4 methoxyphenyl)-2-methylsulfonylethyl]-4 acetylaminoisoindoline 1,3-dione in an amount of about 20 mg/day as an adjuvant for 20 weeks.\nHowever, the first group without (+)-2-[1-(3-ethoxy-4 methoxyphenyl)-2-methylsulfonylethyl]-4-acetylaminoisoindoline 1,3-dione experiences progressive reperfusion of the ablated vessels several weeks after treatment. Progressive visual loss follows which requires the photodynamic therapy to be repeated."}, "TNF-α production": {"test_system": "TNF-α production", "test": "Inhibition of TNF-α production following LPS-stimulation of human PBMC and human whole blood (in vitro pharmacology studies)", "type": "cell-based", "conditions": "more potent than thalidomide", "from_the_text": "One of the biological effects typically exerted by selective cytokine inhibitory drugs is the reduction of synthesis of TNF-α Specific selective cytokine inhibitory drugs enhance the degradation of TNF-αmRNA. TNF-α may play a pathological role in macular degeneration.\nIn a specific embodiment, the pharmacological properties of 3-(3,4-dimethoxy-phenyl)-3-(1-oxo-1,3-dihydro-isoindol-2-yl)-propionamide are characterized in in vitro studies. Studies examine the effects of the compound on the production of various cytokines. Inhibition of TNF-α production following LPS-stimulation of human PBMC and human whole blood by the compound is investigated in vitro. […] The pharmacological effects of 3-(3,4-dimethoxy-phenyl)-3-(1-oxo-1,3-dihydro-isoindol-2-yl)-propionamide may derive from its action as an inhibitor of the generation of inflammatory cytokines."}},
  "data": [
    {"compound": "C[C@]12C=CC(=O)C=C1CC[C@H]1[C@@H]3C[C@@H](O)[C@](O)(C(=O)CO)[C@@]3(C)C[C@H](O)[C@@]12F", "note": "[triamcinolone]", "values": [
      {"measurement": "growth of laser-induced CNVM", "setting": "laser-induced CNVM", "value": "inhibits"},
      {"measurement": "prevention of severe visual loss", "setting": "patients with MD", "value": "fails to prevent severe visual loss"}
    ]},
    {"compound": "interferon-α", "values": [
      {"measurement": "efficacy at treating MD", "setting": "MD; clinical trial", "value": "ineffective"},
      {"measurement": "adverse effects", "setting": "MD; in vivo", "value": "high rate of adverse effects"}
    ]},
    {"compound": "CCOc1cc(C(CS(C)(=O)=O)N2C(=O)c3cccc(NC(C)=O)c3C2=O)ccc1OC", "note": "(single isomer, unassigned; (+)) [(+)-2-[1-(3-ethoxy-4 methoxyphenyl)-2-methylsulfonylethyl]-4 acetylaminoisoindoline 1,3-dione]", "values": [
      {"measurement": "effects of the photodynamic therapy", "setting": "[1]", "value": "indefinitely prolong"},
      {"measurement": "neovascular cascade", "setting": "[1]", "value": "sufficiently hindered"}
    ]},
    {"compound": "COc1ccc(C(CC(N)=O)N2Cc3ccccc3C2=O)cc1OC", "note": "(stereo not shown) [3-(3,4-dimethoxy-phenyl)-3-(1-oxo-1,3-dihydro-isoindol-2-yl)-propionamide]", "values": [
      {"measurement": "pharmacological activity profile, potency relative to thalidomide", "setting": "TNF-α production", "value": "five to fifty"}
    ]}
  ]
}
